Measurements taken from PMC5290327, “SC83288 is a clinical development candidate for the treatment of severe malaria” (Nature Communications, 2017).

Legend:
Assay in all cases: KINOMEscan
Format in all cases: binding
Conditions in all cases: read-out: Remaining enzyme activity
[1] = target: T1, AMPK-alpha1 (Homo sapiens, UniProt Q13131)
T1 construct: purchased Ambit (DiscoverX) KINOMEscan; Cerep
Procedure, shortened: (§1)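 Read-out: qPCR quantitation of DNA-tagged kinase eluted from affinity beads after competition with SC81458 (10 μM final). Kinases were expressed either as T7 phage fusions in E. coli or in HEK-293 cells.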

[2] = target: T2, AURKC (Homo sapiens, UniProt Q9UQB9)
T2 construct: purchased Ambit (DiscoverX) KINOMEscan; Cerep
Procedure, shortened: as §1

[3] = target: T3, BLK (Homo sapiens, UniProt P51451)
T3 construct: purchased Ambit (DiscoverX) KINOMEscan; Cerep
T3 sequence (P51451 whole entry): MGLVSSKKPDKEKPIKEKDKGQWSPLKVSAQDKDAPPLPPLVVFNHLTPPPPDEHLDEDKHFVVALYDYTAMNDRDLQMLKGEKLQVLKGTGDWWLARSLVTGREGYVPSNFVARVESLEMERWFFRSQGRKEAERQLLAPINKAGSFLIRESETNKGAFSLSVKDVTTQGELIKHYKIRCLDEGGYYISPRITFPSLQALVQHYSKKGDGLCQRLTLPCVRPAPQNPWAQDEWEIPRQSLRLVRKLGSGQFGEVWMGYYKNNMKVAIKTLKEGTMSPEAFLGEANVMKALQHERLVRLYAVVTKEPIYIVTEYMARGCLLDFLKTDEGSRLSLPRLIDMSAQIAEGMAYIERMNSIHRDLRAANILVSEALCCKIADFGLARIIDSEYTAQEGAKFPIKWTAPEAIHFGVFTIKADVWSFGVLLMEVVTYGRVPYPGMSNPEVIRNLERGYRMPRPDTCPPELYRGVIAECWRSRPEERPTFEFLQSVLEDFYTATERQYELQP
Procedure, shortened: as §1

[4] = target: T4, CLK4 (Homo sapiens, UniProt Q9HAZ1)
T4 construct: purchased Ambit (DiscoverX) KINOMEscan; Cerep
Procedure, shortened: as §1

[5] = target: T5, CSNK1a1l (Homo sapiens, UniProt Q8N752)
T5 construct: purchased Ambit (DiscoverX) KINOMEscan; Cerep
Procedure, shortened: as §1

[6] = target: T6, CSNK1d (Homo sapiens, UniProt P48730)
T6 construct: purchased Ambit (DiscoverX) KINOMEscan; Cerep
Procedure, shortened: as §1

[7] = target: T7, EGFR(L747-T751del, Sins) (Homo sapiens, UniProt P00533, DEL747-750/T751S)
T7 construct: purchased Ambit (DiscoverX) KINOMEscan; Cerep
Procedure, shortened: as §1

[8] = target: T8, FGFR3(G697C) (Homo sapiens, UniProt P22607, G697C)
T8 construct: purchased Ambit (DiscoverX) KINOMEscan; Cerep
Procedure, shortened: as §1

[9] = target: T9, FLT3(D835H) (Homo sapiens, UniProt P36888, D835H)
T9 construct: purchased Ambit (DiscoverX) KINOMEscan; Cerep
Procedure, shortened: as §1

[10] = target: T10, FLT3(D835Y) (Homo sapiens, UniProt P36888, D835Y)
T10 construct: purchased Ambit (DiscoverX) KINOMEscan; Cerep
Procedure, shortened: as §1

[11] = target: T11, FYN (Homo sapiens, UniProt P06241)
T11 construct: purchased Ambit (DiscoverX) KINOMEscan; Cerep
Procedure, shortened: as §1

[12] = target: T12, GCN2(kin.Dom.2, S808G) (Homo sapiens, UniProt Q9P2K8, S808G)
T12 construct: GCN2(kin.Dom.2, S808G); purchased Ambit (DiscoverX) KINOMEscan; Cerep
Procedure, shortened: as §1

[13] = target: T13, GSK3a (Homo sapiens, UniProt P49840)
T13 construct: purchased Ambit (DiscoverX) KINOMEscan; Cerep
Procedure, shortened: as §1

[14] = target: T14, HIPK4 (Homo sapiens, UniProt Q8NE63)
T14 construct: purchased Ambit (DiscoverX) KINOMEscan; Cerep
T14 sequence (Q8NE63 whole entry): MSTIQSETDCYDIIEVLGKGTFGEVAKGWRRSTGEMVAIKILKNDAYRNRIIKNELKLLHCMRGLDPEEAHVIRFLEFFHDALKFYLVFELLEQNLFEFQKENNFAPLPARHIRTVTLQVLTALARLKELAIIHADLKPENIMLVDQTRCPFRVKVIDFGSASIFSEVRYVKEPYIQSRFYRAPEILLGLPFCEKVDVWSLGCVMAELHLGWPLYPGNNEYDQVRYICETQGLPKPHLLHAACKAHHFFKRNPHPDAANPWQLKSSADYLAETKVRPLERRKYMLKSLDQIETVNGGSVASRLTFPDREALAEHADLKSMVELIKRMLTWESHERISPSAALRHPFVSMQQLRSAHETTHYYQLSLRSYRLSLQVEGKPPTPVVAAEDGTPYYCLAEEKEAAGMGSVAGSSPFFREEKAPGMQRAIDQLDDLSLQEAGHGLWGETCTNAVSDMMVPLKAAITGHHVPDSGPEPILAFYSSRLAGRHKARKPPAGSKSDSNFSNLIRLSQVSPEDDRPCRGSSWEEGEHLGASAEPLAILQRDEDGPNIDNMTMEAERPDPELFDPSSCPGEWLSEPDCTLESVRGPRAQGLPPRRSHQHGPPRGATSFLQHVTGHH
Procedure, shortened: as §1

[15] = target: T15, KIT(L576P) (Homo sapiens, UniProt P10721, L576P)
T15 construct: purchased Ambit (DiscoverX) KINOMEscan; Cerep
Procedure, shortened: as §1

[16] = target: T16, LIMK1 (Homo sapiens, UniProt P53667)
T16 construct: purchased Ambit (DiscoverX) KINOMEscan; Cerep
Procedure, shortened: as §1

[17] = target: T17, MARK3 (Homo sapiens, UniProt P27448)
T17 construct: purchased Ambit (DiscoverX) KINOMEscan; Cerep
Procedure, shortened: as §1

[18] = target: T18, MEK2 (Homo sapiens, UniProt P36507)
T18 construct: purchased Ambit (DiscoverX) KINOMEscan; Cerep
Procedure, shortened: as §1

[19] = target: T19, MRCKA (Homo sapiens, UniProt Q5VT25)
T19 construct: purchased Ambit (DiscoverX) KINOMEscan; Cerep
T19 sequence (Q5VT25 whole entry): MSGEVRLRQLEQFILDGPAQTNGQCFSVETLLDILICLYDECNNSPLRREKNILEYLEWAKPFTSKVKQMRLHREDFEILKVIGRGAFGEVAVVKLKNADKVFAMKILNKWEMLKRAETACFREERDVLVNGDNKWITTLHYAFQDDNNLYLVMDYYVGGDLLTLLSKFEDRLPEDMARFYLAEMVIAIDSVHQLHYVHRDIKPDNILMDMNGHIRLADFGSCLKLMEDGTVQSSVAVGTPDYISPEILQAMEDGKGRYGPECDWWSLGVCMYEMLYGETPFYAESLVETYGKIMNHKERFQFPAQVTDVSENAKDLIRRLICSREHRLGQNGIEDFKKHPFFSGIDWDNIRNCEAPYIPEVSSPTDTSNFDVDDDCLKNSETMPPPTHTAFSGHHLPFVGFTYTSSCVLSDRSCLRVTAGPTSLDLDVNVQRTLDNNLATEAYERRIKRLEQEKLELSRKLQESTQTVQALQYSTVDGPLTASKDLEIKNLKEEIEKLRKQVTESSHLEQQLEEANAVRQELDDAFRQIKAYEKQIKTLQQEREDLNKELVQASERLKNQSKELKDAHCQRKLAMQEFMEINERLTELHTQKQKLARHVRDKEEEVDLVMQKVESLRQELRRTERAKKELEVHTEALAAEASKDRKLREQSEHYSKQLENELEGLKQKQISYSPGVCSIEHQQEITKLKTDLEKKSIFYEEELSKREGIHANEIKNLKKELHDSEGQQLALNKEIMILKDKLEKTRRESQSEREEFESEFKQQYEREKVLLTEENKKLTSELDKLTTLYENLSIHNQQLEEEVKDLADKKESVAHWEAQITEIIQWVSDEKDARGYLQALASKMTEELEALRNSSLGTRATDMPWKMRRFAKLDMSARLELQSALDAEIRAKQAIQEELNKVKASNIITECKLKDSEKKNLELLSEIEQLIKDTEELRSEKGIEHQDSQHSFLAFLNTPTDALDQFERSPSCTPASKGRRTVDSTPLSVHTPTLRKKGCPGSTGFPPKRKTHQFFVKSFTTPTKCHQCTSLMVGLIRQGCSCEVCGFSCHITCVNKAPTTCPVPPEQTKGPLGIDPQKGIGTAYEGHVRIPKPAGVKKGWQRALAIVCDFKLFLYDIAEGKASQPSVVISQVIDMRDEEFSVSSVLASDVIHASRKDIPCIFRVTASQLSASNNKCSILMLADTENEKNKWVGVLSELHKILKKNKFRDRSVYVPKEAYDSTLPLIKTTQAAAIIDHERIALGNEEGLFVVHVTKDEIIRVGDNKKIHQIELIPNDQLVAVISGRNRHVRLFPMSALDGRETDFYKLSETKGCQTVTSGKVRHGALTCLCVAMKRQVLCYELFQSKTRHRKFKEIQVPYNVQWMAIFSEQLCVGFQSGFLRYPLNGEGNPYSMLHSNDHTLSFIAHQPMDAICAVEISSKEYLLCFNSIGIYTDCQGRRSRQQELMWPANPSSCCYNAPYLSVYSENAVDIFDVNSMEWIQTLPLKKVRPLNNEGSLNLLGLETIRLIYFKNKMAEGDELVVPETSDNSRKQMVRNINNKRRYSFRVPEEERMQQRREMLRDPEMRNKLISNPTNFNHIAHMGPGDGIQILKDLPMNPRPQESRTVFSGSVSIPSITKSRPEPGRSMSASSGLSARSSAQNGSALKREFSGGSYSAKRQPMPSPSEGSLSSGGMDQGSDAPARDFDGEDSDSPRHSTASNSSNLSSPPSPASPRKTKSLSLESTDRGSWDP
Procedure, shortened: as §1

[20] = target: T20, MST1R (Homo sapiens, UniProt Q04912)
T20 construct: purchased Ambit (DiscoverX) KINOMEscan; Cerep
T20 sequence (Q04912 25-1400): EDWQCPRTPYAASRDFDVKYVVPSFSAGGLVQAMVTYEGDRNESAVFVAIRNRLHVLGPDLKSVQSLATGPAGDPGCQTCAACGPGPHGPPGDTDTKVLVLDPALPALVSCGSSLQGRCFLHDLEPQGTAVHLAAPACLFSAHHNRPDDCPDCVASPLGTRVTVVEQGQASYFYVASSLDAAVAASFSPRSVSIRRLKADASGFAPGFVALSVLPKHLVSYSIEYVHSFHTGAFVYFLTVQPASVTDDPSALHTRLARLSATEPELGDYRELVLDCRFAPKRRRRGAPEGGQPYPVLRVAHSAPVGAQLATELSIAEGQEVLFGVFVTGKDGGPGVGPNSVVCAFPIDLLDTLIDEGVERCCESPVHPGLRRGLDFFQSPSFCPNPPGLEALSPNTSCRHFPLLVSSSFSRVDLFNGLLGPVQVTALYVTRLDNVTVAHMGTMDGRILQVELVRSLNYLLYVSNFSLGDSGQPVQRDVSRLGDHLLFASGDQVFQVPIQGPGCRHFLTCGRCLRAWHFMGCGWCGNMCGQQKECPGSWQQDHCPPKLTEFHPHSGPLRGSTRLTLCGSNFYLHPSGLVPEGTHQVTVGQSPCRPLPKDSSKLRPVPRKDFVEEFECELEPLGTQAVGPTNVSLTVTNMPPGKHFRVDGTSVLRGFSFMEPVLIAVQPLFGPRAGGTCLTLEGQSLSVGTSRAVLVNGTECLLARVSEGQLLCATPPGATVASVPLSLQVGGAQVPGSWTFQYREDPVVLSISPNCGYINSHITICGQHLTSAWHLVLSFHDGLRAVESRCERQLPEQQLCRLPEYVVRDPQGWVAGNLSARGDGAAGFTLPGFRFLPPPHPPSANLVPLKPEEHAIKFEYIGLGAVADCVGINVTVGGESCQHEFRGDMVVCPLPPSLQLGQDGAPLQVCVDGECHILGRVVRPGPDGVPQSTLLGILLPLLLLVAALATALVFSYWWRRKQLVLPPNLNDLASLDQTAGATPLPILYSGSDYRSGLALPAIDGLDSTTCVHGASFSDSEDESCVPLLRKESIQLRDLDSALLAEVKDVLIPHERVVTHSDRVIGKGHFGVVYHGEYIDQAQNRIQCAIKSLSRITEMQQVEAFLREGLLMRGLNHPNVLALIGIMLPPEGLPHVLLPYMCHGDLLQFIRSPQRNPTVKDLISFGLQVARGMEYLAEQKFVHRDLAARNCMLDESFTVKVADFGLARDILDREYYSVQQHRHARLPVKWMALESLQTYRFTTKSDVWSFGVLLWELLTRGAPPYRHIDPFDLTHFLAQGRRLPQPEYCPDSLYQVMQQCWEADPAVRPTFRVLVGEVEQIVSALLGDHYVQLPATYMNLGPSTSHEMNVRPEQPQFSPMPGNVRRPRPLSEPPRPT
Procedure, shortened: as §1

[21] = target: T21, NDR1 (Homo sapiens, UniProt Q15208)
T21 construct: purchased Ambit (DiscoverX) KINOMEscan; Cerep
T21 sequence (Q15208 whole entry): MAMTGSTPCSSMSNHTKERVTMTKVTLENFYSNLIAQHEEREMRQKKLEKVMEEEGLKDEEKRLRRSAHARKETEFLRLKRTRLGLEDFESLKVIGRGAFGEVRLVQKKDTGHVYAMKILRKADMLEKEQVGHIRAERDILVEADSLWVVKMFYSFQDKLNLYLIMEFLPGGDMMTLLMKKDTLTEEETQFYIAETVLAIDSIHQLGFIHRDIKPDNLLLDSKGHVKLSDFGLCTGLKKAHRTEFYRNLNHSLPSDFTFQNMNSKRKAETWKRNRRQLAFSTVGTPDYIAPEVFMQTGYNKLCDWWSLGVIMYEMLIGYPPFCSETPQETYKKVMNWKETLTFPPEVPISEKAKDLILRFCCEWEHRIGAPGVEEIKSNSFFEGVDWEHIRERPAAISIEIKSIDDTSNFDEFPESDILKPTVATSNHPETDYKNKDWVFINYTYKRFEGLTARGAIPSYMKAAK
Procedure, shortened: as §1

[22] = target: T22, PCTk3 (Homo sapiens, UniProt Q07002)
T22 construct: purchased Ambit (DiscoverX) KINOMEscan; Cerep
Procedure, shortened: as §1

[23] = target: T23, PIK3CA (Homo sapiens, UniProt P42336)
T23 construct: purchased Ambit (DiscoverX) KINOMEscan; Cerep
Procedure, shortened: as §1

[24] = target: T24, PIK3CA(E542K) (Homo sapiens, UniProt P42336, E542K)
T24 construct: purchased Ambit (DiscoverX) KINOMEscan; Cerep
Procedure, shortened: as §1

[25] = target: T25, PIK3CA(E545A) (Homo sapiens, UniProt P42336, E545A)
T25 construct: purchased Ambit (DiscoverX) KINOMEscan; Cerep
Procedure, shortened: as §1

[26] = target: T26, PKAC-apha (Homo sapiens, UniProt P17612)
T26 construct: purchased Ambit (DiscoverX) KINOMEscan; Cerep
Procedure, shortened: as §1

[27] = target: T27, PKN1 (Homo sapiens, UniProt Q16512)
T27 construct: purchased Ambit (DiscoverX) KINOMEscan; Cerep
Procedure, shortened: as §1

[28] = target: T28, PRKG2 (Homo sapiens, UniProt Q13237)
T28 construct: purchased Ambit (DiscoverX) KINOMEscan; Cerep
Procedure, shortened: as §1

[29] = target: T29, ROS1 (Homo sapiens, UniProt P08922)
T29 construct: purchased Ambit (DiscoverX) KINOMEscan; Cerep
Procedure, shortened: as §1

[30] = target: T30, SBK1 (Homo sapiens, UniProt Q52WX2)
T30 construct: purchased Ambit (DiscoverX) KINOMEscan; Cerep
Procedure, shortened: as §1

[31] = target: T31, TYK2(JHdomain-catalytic) (Homo sapiens, UniProt P29597)
T31 construct: TYK2(JHdomain-catalytic); purchased Ambit (DiscoverX) KINOMEscan; Cerep
T31 sequence (P29597 871-1187 limits assumed): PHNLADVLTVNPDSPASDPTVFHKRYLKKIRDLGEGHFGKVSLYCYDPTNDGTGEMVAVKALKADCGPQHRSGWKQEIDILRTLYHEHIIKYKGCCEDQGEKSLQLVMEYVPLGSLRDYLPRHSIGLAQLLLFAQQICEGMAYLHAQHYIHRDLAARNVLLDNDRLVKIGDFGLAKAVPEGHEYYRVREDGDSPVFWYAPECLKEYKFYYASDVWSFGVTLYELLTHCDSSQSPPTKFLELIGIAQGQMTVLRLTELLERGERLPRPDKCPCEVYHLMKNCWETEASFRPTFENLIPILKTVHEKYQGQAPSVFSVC
Procedure, shortened: as §1

[32] = target: T32, YES (Homo sapiens, UniProt P07947)
T32 construct: purchased Ambit (DiscoverX) KINOMEscan; Cerep
Procedure, shortened: as §1

Compound `CCCCN1CCN(C(=N)c2cccc(NC(=O)Nc3ccc(S(=O)(=O)NCc4ccc(S(N)(=O)=O)cc4)cc3)c2)CC1` [SC81458, 4-(3-(3-((4-butylpiperazin-1-yl)(imino)methyl)phenyl)ureido)-N-(4-sulfamoylbenzyl) benzenesulfonamide] has a remaining binding at 10 µM [1] of 100%, a remaining binding at 10 µM [2] of 73% and a remaining binding at 10 µM [3] of 100%. For the same compound, the remaining binding at 10 µM [4] was 92%, the remaining binding at 10 µM [5] was 100% and the remaining binding at 10 µM [6] was 100%. The remaining binding at 10 µM [7] was 69%, the remaining binding at 10 µM [8] was 100% and the remaining binding at 10 µM [9] was 100%. For the same compound, the remaining binding at 10 µM [10] was 89%, the remaining binding at 10 µM [11] was 100% and the remaining binding at 10 µM [12] was 100%. The remaining binding at 10 µM [13] was 100%, the remaining binding at 10 µM [14] was 100% and the remaining binding at 10 µM [15] was 66%. The remaining binding at 10 µM [16] was 76%, the remaining binding at 10 µM [17] was 99% and the remaining binding at 10 µM [18] was 100%. It also gave a remaining binding at 10 µM [19] of 100%, a remaining binding at 10 µM [20] of 91% and a remaining binding at 10 µM [21] of 100%. For the same compound, the remaining binding at 10 µM [22] was 98%, the remaining binding at 10 µM [23] was 83% and the remaining binding at 10 µM [24] was 100%. For the same compound, the remaining binding at 10 µM [25] was 100%, the remaining binding at 10 µM [26] was 75% and the remaining binding at 10 µM [27] was 100%. The remaining binding at 10 µM [28] was 80%, the remaining binding at 10 µM [29] was 100% and the remaining binding at 10 µM [30] was 72%. The remaining binding at 10 µM [31] was 76% and the remaining binding at 10 µM [32] was 97%.
